The source of these data is BindingDB's records for doi:10.1021/jm00049a010 (University of Arizona, 1994).

pIC50: −log10 of the molar value.

A short description of the assay: Binding affinity at delta opioid receptor in guinea pig brain by [3H]c[D-Pen2, p-Cl-Phe4, D-Pen5]-enkephalin displacement.
What is called pIC50 is −log10 of the IC50, conventionally taken in molar units. `CC[C@H](C)[C@@H]1NC(=O)[C@H](CCCN=C(N)N)NC(=O)[C@H](CCCN=C(N)N)NC(=O)[C@H](NC(=O)[C@H](Cc2ccccc2)NC(=O)CNC(=O)CNC(=O)[C@@H](N)Cc2ccc(O)cc2)CSSC[C@@H](C(N)=O)NC(=O)[C@@H]2CCCN2C(=O)[C@H](CCCN=C(N)N)NC1=O` had a pIC50 of 6.00.

For the compound `CC[C@H](C)[C@@H]1NC(=O)[C@H](CCCNC(=N)N)NC(=O)[C@H](CCCNC(=N)N)NC(=O)[C@@H](NC(=O)[C@H](Cc2ccccc2)NC(=O)CNC(=O)CNC(=O)[C@@H](N)Cc2ccc(O)cc2)CSSC[C@@H](C(N)=O)NC(=O)[C@@H]2CCCN2C(=O)[C@H](CCCNC(=N)N)NC1=O`, the pIC50 is 5.76.

`CC[C@H](C)[C@@H]1NC(=O)[C@H](CCCN=C(N)N)NC(=O)[C@H](CCCN=C(N)N)NC(=O)[C@@H](NC(=O)[C@H](Cc2ccccc2)NC(=O)CNC(=O)CNC(=O)[C@@H](N)Cc2ccc(O)cc2)C(C)(C)SSC(C)(C)[C@@H](C(N)=O)NC(=O)[C@@H]2CCCN2C(=O)[C@H](CCCN=C(N)N)NC1=O` gave a pIC50 of 6.61.

As for `CC[C@H](C)[C@@H]1NC(=O)[C@H](CCCN=C(N)N)NC(=O)[C@H](CCCN=C(N)N)NC(=O)[C@@H](NC(=O)[C@H](Cc2ccccc2)NC(=O)CNC(=O)CNC(=O)[C@@H](N)Cc2ccc(O)cc2)CSSC[C@H](C(N)=O)NC(=O)[C@@H]2CCCN2C(=O)[C@H](CCCN=C(N)N)NC1=O`, the pIC50 was 7.85.

`CC[C@H](C)[C@@H]1NC(=O)[C@H](CCCN=C(N)N)NC(=O)[C@H](CCCN=C(N)N)NC(=O)[C@@H](NC(=O)[C@H](Cc2ccccc2)NC(=O)CNC(=O)CNC(=O)[C@@H](N)Cc2ccc(O)cc2)CSSC(C)(C)[C@@H](C(N)=O)NC(=O)[C@@H]2CCCN2C(=O)[C@H](CCCN=C(N)N)NC1=O` [Tyr-Gly-Gly-Phe-D-Cys-Arg-Arg-Ile-Arg-Pro-Cys-NH2] gave a pIC50 of 7.80.

Regarding `CC[C@H](C)[C@@H]1NC(=O)[C@H](CCCN=C(N)N)NC(=O)[C@H](CCCN=C(N)N)NC(=O)[C@H](NC(=O)[C@H](Cc2ccccc2)NC(=O)CNC(=O)CNC(=O)[C@@H](N)Cc2ccc(O)cc2)CSSC[C@H](C(N)=O)NC(=O)[C@@H]2CCCN2C(=O)[C@H](CCCN=C(N)N)NC1=O` [Tyr-Gly-Gly-Phe-D-Cys-Arg-Arg-Ile-Arg-Pro-D-Cys-NH2], the pIC50 was 5.99.

Regarding `CC[C@H](C)[C@@H]1NC(=O)[C@H](CCCN=C(N)N)NC(=O)[C@H](CCCN=C(N)N)NC(=O)[C@H](NC(=O)[C@H](Cc2ccccc2)NC(=O)CNC(=O)CNC(=O)[C@@H](N)Cc2ccc(O)cc2)CSSC(C)(C)[C@H](C(N)=O)NC(=O)[C@@H]2CCCN2C(=O)[C@H](CCCN=C(N)N)NC1=O` [Tyr-Gly-Gly-Phe-D-Cys-Arg-Arg-Ile-Arg-Pro-D-Pen-NH2], the pIC50 is 5.86.

With `CC[C@H](C)[C@@H]1NC(=O)[C@H](CCCN=C(N)N)NC(=O)[C@H](CCCN=C(N)N)NC(=O)[C@@H](NC(=O)[C@H](Cc2ccccc2)NC(=O)CNC(=O)CNC(=O)[C@@H](N)Cc2ccc(O)cc2)CSSC(C)(C)[C@H](C(N)=O)NC(=O)[C@@H]2CCCN2C(=O)[C@H](CCCN=C(N)N)NC1=O` [Tyr-Gly-Gly-Phe-D-Cys-Arg-Arg-Ile-Arg-Pro-Pen-NH2], the negative logarithm of the IC50 (pIC50) is 6.50.

As to `CC[C@H](C)[C@@H]1NC(=O)[C@H](CCCN=C(N)N)NC(=O)[C@H](CCCN=C(N)N)NC(=O)[C@@H](NC(=O)[C@H](Cc2ccccc2)NC(=O)CNC(=O)CNC(=O)[C@@H](N)Cc2ccc(O)cc2)C(C)(C)SSC[C@@H](C(N)=O)NC(=O)[C@@H]2CCCN2C(=O)[C@H](CCCN=C(N)N)NC1=O` [Tyr-Gly-Gly-Phe-D-Pen-Arg-Arg-Ile-Arg-Pro-Cys-NH2], the pIC50 is 6.62.

As for `CC[C@H](C)[C@@H]1NC(=O)[C@H](CCCN=C(N)N)NC(=O)[C@H](CCCN=C(N)N)NC(=O)[C@H](NC(=O)[C@H](Cc2ccccc2)NC(=O)CNC(=O)CNC(=O)[C@@H](N)Cc2ccc(O)cc2)C(C)(C)SSC[C@H](C(N)=O)NC(=O)[C@@H]2CCCN2C(=O)[C@H](CCCN=C(N)N)NC1=O` [Tyr-Gly-Gly-Phe-D-Pen-Arg-Arg-Ile-Arg-Pro-D-Cys-NH2], the pIC50 was 6.41.

For `CC[C@H](C)[C@@H]1NC(=O)[C@H](CCCN=C(N)N)NC(=O)[C@H](CCCN=C(N)N)NC(=O)[C@H](NC(=O)[C@H](Cc2ccccc2)NC(=O)CNC(=O)CNC(=O)[C@@H](N)Cc2ccc(O)cc2)C(C)(C)SSC(C)(C)[C@H](C(N)=O)NC(=O)[C@@H]2CCCN2C(=O)[C@H](CCCN=C(N)N)NC1=O` [Tyr-Gly-Gly-Phe-D-Pen-Arg-Arg-Ile-Arg-Pro-D-Pen-NH2], the negative-log IC50 (pIC50) was 5.72.

`CC[C@H](C)[C@@H]1NC(=O)[C@H](CCCN=C(N)N)NC(=O)[C@H](CCCN=C(N)N)NC(=O)[C@H](NC(=O)[C@H](Cc2ccccc2)NC(=O)CNC(=O)CNC(=O)[C@@H](N)Cc2ccc(O)cc2)C(C)(C)SSC[C@@H](C(N)=O)NC(=O)[C@@H]2CCCN2C(=O)[C@H](CCCN=C(N)N)NC1=O` [Tyr-Gly-Gly-Phe-D-Pen-Arg-Arg-Ile-Arg-Pro-Pen-NH2] had a pIC50 of 5.70.

For `CC[C@H](C)[C@@H]1NC(=O)[C@H](CCCN=C(N)N)NC(=O)[C@H](CCCN=C(N)N)NC(=O)[C@H](NC(=O)[C@H](Cc2ccccc2)NC(=O)CNC(=O)CNC(=O)[C@@H](N)Cc2ccc(O)cc2)C(C)(C)SSC(C)(C)[C@@H](C(N)=O)NC(=O)[C@@H]2CCCN2C(=O)[C@H](CCCN=C(N)N)NC1=O` [Tyr-Gly-Gly-Phe-Pen-Arg-Arg-Ile-Arg-Pro-Cys-NH2], the negative logarithm of the IC50 (pIC50) is 5.87.

On to `CC[C@H](C)[C@@H]1NC(=O)[C@H](CCCN=C(N)N)NC(=O)[C@H](CCCN=C(N)N)NC(=O)[C@@H](NC(=O)[C@H](Cc2ccccc2)NC(=O)CNC(=O)CNC(=O)[C@@H](N)Cc2ccc(O)cc2)C(C)(C)SSC(C)(C)[C@H](C(N)=O)NC(=O)[C@@H]2CCCN2C(=O)[C@H](CCCN=C(N)N)NC1=O` [Tyr-Gly-Gly-Phe-Pen-Arg-Arg-Ile-Arg-Pro-D-Cys-NH2], for which the pIC50 was 6.14.

`CC[C@H](C)[C@@H]1NC(=O)[C@H](CCCN=C(N)N)NC(=O)[C@H](CCCN=C(N)N)NC(=O)[C@@H](NC(=O)[C@H](Cc2ccccc2)NC(=O)CNC(=O)CNC(=O)[C@@H](N)Cc2ccc(O)cc2)C(C)(C)SSC[C@H](C(N)=O)NC(=O)[C@@H]2CCCN2C(=O)[C@H](CCCN=C(N)N)NC1=O` [Tyr-Gly-Gly-Phe-Pen-Arg-Arg-Ile-Arg-Pro-D-Pen-NH2] had a pIC50 of 6.63.
